Measured values: patent US11869191B2, “System and method for tissue viability screening” (THE REGENTS OF THE UNIVERSITY OF CALIFORNIA, priority 2019, dated 2024)

Test system: pre-implantation mouse embryos
Experiment: Inhibition of glycolysis, phasor-FLIM of NADH lifetime in embryos
Type: cell-based
Conditions: 1 mM, early blastocyst stage embryos; g value vs control p-value=3.88E-09
Experimental: Embryos were placed in 25 μl microdroplets of KSOMaa (Invitrogen) with the appropriate inhibitors covered in mineral oil (Sigma). Both of the two chemical inhibitors, rotenone and antimycin A cocktail (R&A) and 2-Deoxyglucose (2DeoxyG) were dissolved in KSOMaa. For R&A, the inhibitor was prepared to perform dose dependence measurements for a final concentration of 100 nM and 500 nM. For 2DeoxyG, the inhibitor has a final concentration of 1 mM. KSOMaa was used as a solvent and culture media for the control group and treatment group embryos.
Fluorescence lifetime images of the pre-implantation embryos were acquired on Zeiss LSM710 (Carl Zeiss, Jena, Germany), a multi-photon microscope coupled with a Ti: Sapphire laser (Spectra-Physics Mai Tai, Mountain View, CA) with 80 MHz repetition rate. […] A dichroic filter at 690 nm was used to separate the fluorescence signal from the laser light. And the emission signal was split with 496 nm LP filter and detected in two channels using a band pass filter 460/80 and a 540/50 filter. […] FLIM calibration of the system was performed by measuring the known lifetime of a fluorophore coumarin 6 (dissolved in ethanol), which has a known fluorescence lifetime of T=2.5 ns(37, 38). […] FLIM data were acquired and processed by the SimFCS software developed at the Laboratory of Fluorescence Dynamics (LFD). […]

O=CC[C@@H](O)[C@H](O)[C@H](O)CO [2DeoxyG, 2-Deoxy-D-Glucose]
phasor-FLIM lifetime distribution (free/bound NADH) compared to controls: shifted the phasor-FLIM distribution to longer lifetime
